Experimental data published in patent US12162881B2, “Forms and compositions of inhibitors of JAK2” (Ajax Therapeutics, Inc., priority 2021, dated 2024).
In brackets after ≈: the same amount, converted by molar mass. Where two headings read alike, the source gives them in different places.

Legend:
[1] = Dynamic vapor sorption (DVS) hygroscopicity; assay type: physicochemical; details: for Hysteresis: in % (unit assumed)
Experimental: Automated vapor sorption (VS) data were collected on a Surface Measurement System DVS Intrinsic instrument. Samples were not dried prior to analysis. Sorption and desorption data were collected over a range from 5% to 95% RH at 10% RH increments under a nitrogen purge. The equilibrium criterion used for analysis was less than 0.0100% weight change in 5 minutes with a maximum equilibration time of 3 hours. Data were not corrected for the initial moisture content of the samples.

[2] = Kinetic solubility of Compound 1 Lot II, visually estimated at ambient temperature; assay type: physicochemical; details: thermodynamic from solid
Experimental: Kinetic solubility of Compound 1 Lot II was visually estimated at ambient temperature (Table 22). Aliquots of various solvents were added to weighed samples of Compound 1 Lot II with agitation at ambient temperature until complete dissolution was achieved, as judged by visual observation. If dissolution occurred after the addition of the first aliquot, values were reported as “>”.

[3] = Target RH 5.0%, listed as Lot II
[4] = Target RH 15.0%, listed as Lot II
[5] = Target RH 25.0%, listed as Lot II
[6] = Target RH 35.0%, listed as Lot II
[7] = Target RH 45.0%, listed as Lot II
[8] = Target RH 55.0%, listed as Lot II
[9] = Target RH 65.0%, listed as Lot II
[10] = Target RH 75.0%, listed as Lot II
[11] = Target RH 85.0%, listed as Lot II
[12] = Target RH 95.0%, listed as Lot II
[13] = desorption from 95% to 5% RH, listed as Lot II
[14] = sorption from 5% to 95% RH, listed as Lot II

Desorp Mass Change (%) [1, 3]: −0.019%
Sorp Mass Change (%) [1, 3]: 0.000%
Desorp Mass Change (%) [1, 4]: 0.332%
Sorp Mass Change (%) [1, 4]: 0.152%
Hysteresis [1, 4]: 0.180
Desorp Mass Change (%) [1, 5]: 5.623%
Sorp Mass Change (%) [1, 5]: 0.250%
Hysteresis [1, 5]: 5.373
Desorp Mass Change (%) [1, 6]: 6.984%
Sorp Mass Change (%) [1, 6]: 1.468%
Hysteresis [1, 6]: 5.516
Desorp Mass Change (%) [1, 7]: 7.374%
Sorp Mass Change (%) [1, 7]: 4.861%
Hysteresis [1, 7]: 2.513
Desorp Mass Change (%) [1, 8]: 7.842%
Sorp Mass Change (%) [1, 8]: 6.99%
Hysteresis [1, 8]: 0.848
Desorp Mass Change (%) [1, 9]: 8.505%
Sorp Mass Change (%) [1, 9]: 7.697%
Hysteresis [1, 9]: 0.808
Desorp Mass Change (%) [1, 10]: 8.972%
Sorp Mass Change (%) [1, 10]: 8.454%
Hysteresis [1, 10]: 0.518
Desorp Mass Change (%) [1, 11]: 9.206%
Sorp Mass Change (%) [1, 11]: 9.042%
Hysteresis [1, 11]: 0.164
Desorp Mass Change (%) [1, 12]: 9.408%
Sorp Mass Change (%) [1, 12]: 9.408%
DVS weight loss upon desorption [1, 13]: 9.4%
DVS weight loss upon desorption as water [1, 13]: approximately 2.9 mol/mol H2O
DVS weight gain [1, 14]: 9.4%
DVS weight gain as water uptake [1, 14]: approximately 2.9 mol/mol H2O
DVS weight gain ([1]; sorption from 25% to 55% RH): 6.7%
DVS weight gain as water uptake ([1]; sorption from 25% to 55% RH): ~2.0 mol/mol H2O
DVS hysteresis observation ([1]; sorption/desorption 5-95% RH, listed as Lot II): Hysteresis was observed
solubility ([2]; 5:95 HFIPA/H2O (v/v), aqueous with cosolvent or surfactant or cyclodextrin, 5:95 HFIPA/H2O (v/v), ambient temperature, read-out: Solubility (mg/mL)): < 1 mg/mL
solubility ([2]; 50:50 DMA/H2O (v/v), aqueous with cosolvent or surfactant or cyclodextrin, 50:50 DMA/H2O (v/v), ambient temperature, read-out: Solubility (mg/mL)): < 1 mg/mL
solubility ([2]; 50:50 MeOH/CHCl3 (v/v), organic solvent or mixture, 50:50 MeOH/CHCl3 (v/v), ambient temperature, read-out: Solubility (mg/mL)): 5 to 20 mg/mL (≈ 10 to 40.1 mM)
solubility ([2]; 50:50 MeOH/DCM (v/v), organic solvent or mixture, 50:50 MeOH/DCM (v/v), ambient temperature, read-out: Solubility (mg/mL)): 5 to 20 mg/mL (≈ 10 to 40.1 mM)
solubility ([2]; 50:50 MeOH/H2O (v/v), aqueous with cosolvent or surfactant or cyclodextrin, 50:50 MeOH/H2O (v/v), ambient temperature, read-out: Solubility (mg/mL)): < 1 mg/mL
solubility ([2]; 50:50 TFE/H2O (v/v), aqueous with cosolvent or surfactant or cyclodextrin, 50:50 TFE/H2O (v/v), ambient temperature, read-out: Solubility (mg/mL)): 1 to 4.9 mg/mL (≈ 2.01 to 9.83 mM)
solubility ([2]; 50:50 THF/H2O (v/v), aqueous with cosolvent or surfactant or cyclodextrin, 50:50 THF/H2O (v/v), ambient temperature, read-out: Solubility (mg/mL)): 1 to 4.9 mg/mL (≈ 2.01 to 9.83 mM)
solubility ([2]; 50:50 acetone/water (v/v), aqueous with cosolvent or surfactant or cyclodextrin, 50:50 acetone/water (v/v), ambient temperature, read-out: Solubility (mg/mL)): 1 to 4.9 mg/mL (≈ 2.01 to 9.83 mM)
solubility ([2]; ACN, organic solvent or mixture, ACN, ambient temperature, read-out: Solubility (mg/mL)): < 1 mg/mL
solubility ([2]; AcOH, organic solvent or mixture, AcOH, ambient temperature, read-out: Solubility (mg/mL)): 5 to 20 mg/mL (≈ 10 to 40.1 mM)
solubility ([2]; CHCl3, organic solvent or mixture, CHCl3, ambient temperature, read-out: Solubility (mg/mL)): < 1 mg/mL
solubility ([2]; DCM, organic solvent or mixture, DCM, ambient temperature, read-out: Solubility (mg/mL)): < 1 mg/mL
solubility ([2]; DMA, organic solvent or mixture, DMA, ambient temperature, read-out: Solubility (mg/mL)): 5 to 20 mg/mL (≈ 10 to 40.1 mM)
solubility ([2]; DMF, organic solvent or mixture, DMF, ambient temperature, read-out: Solubility (mg/mL)): 1 to 4.9 mg/mL (≈ 2.01 to 9.83 mM)
solubility ([2]; DMSO, organic solvent or mixture, DMSO, ambient temperature, read-out: Solubility (mg/mL)): 5 to 20 mg/mL (≈ 10 to 40.1 mM)
solubility ([2]; H2O, water, H2O, ambient temperature, read-out: Solubility (mg/mL)): < 1 mg/mL
solubility ([2]; HFIPA, organic solvent or mixture, HFIPA, ambient temperature, read-out: Solubility): 84 mg/mL (≈ 169 mM)
solubility ([2]; HFIPA, organic solvent or mixture, HFIPA, ambient temperature, read-out: Solubility (mg/mL)): 5 to 20 mg/mL (≈ 10 to 40.1 mM)
solubility ([2]; MeOH, organic solvent or mixture, MeOH, ambient temperature, read-out: Solubility (mg/mL)): < 1 mg/mL
solubility ([2]; NMP, organic solvent or mixture, NMP, ambient temperature, read-out: Solubility (mg/mL)): 5 to 20 mg/mL (≈ 10 to 40.1 mM)
solubility ([2]; TFE, organic solvent or mixture, TFE, ambient temperature, read-out: Solubility (mg/mL)): 5 to 20 mg/mL (≈ 10 to 40.1 mM)
solubility ([2]; THF, organic solvent or mixture, THF, ambient temperature, solution almost completely clear after 24 h, read-out: Solubility (mg/mL)): 1 to 4.9 mg/mL (≈ 2.01 to 9.83 mM)
solubility ([2]; THF, organic solvent or mixture, THF, left at ambient temperature overnight, read-out: Solubility): ≥ 1 mg/mL
solubility ([2]; acetone, organic solvent or mixture, Acetone, ambient temperature, read-out: Solubility (mg/mL)): < 1 mg/mL
solubility ([2]; ethylene glycol, organic solvent or mixture, Ethylene glycol, ambient temperature, read-out: Solubility (mg/mL)): < 1 mg/mL
solubility ([2]; organic solvent or mixture, AcOH, DMF, DMSO, 50:50 MeOH/DCM, 50:50 MeOH/CHCl3, NMP, TFE, and 50:50 TFE/H2O, ambient temperature, read-out: Solubility (limited solubility values)): 1 to 20 mg/mL (≈ 2.01 to 40.1 mM)
SMILES: CC(=O)Nc1cc(Oc2cnc3nc(Nc4cc(C(F)(F)F)cn(C)c4=O)n(C)c3c2C#N)ccn1 [Compound 1 Lot II, N-(4-((7-cyano-1-methyl-2-((1-methyl-2-oxo-5-(trifluoromethyl)-1,2-dihydropyridin-3-yl)amino)-1H-imidazo[4,5-b]pyridin-6-yl)oxy)pyridin-2-yl)acetamide]
post-DVS XRPD ([1]; solid recovered after DVS cycle, listed as Lot II): mostly Form B with some peaks attributed to Form O present
